According to US20100098746A1, “COMPOSITIONS AND METHODS FOR TREATING PERIODONTAL DISEASE COMPRISING CLONIDINE, SULINDAC AND/OR FLUOCINOLONE” (Warsaw Orthopedic, Inc., priority 2008, published 2010):

Tests used:
[1] = tested on: mechanical allodynia, Bennett Model; settings: subcutaneously at 0.02 mg/kg/day
Experimental: (§1) The efficacy of a five Month Clonidine/Polymer Drug Depot in the Rat Chronic Constriction Injury Model was evaluated. The animal model was the Bennett Model (Wistar rat). The purpose: To determine whether a five month polymer clonidine-eluting depot can improve pain associated behavioral responses in a rat model of neuropathic pain with an inflammatory component.
(§2) Experimental Design: Four loose chromic gut ligatures, 1 mm apart, were tied around the common sciatic nerve at mid-thigh. Each animal received treatment of test or control article—according to the dosing described in Table 5.
(§3) The present study was conducted for a period of 64 days and employed the following two tests: (1) the Hargreaves test; and (2) the von Frey test. The Hargreaves Tests of Thermal Hyperalgesia were conducted on days 7, 14, 21, 28, 35, 42, 49, 56 and 63. The von Frey monofilament test of mechanical allodynia (performed the day following Thermal testing) were conducted on days-8, 15, 22, 29, 36, 43, 50, 57 and 64.

[2] = tested on: thermal hyperalgesia, Bennett Model; settings: subcutaneously at 0.02 mg/kg/day
Experimental: as §1, §2, §3

murine RAW NO+ cell line = settings: for inhibitory effects on osteoclast differentiation and resorption: clonidine tested at 100, 10, 1, 0.1 μM, sulindac at 140, 70, 35, 17.5, 8.75 μM, RANK L 30 ng/ml; for lowest inhibitory concentration: osteoclast differentiation and resorption
Experimental: The purpose of this set of experiments was to narrow the number of periodontal candidates by determining the lowest dose of the drug that inhibits or blocks osteoclast differentiation and/or resorption.
Cell culture complete media was prepared by adding 10% FBS to high glucose DMEM. • 2. A nitric oxide-containing murine RAW NO+ cell line, f frozen in DMSO-containing medium under liquid nitrogen, was used for these assays. • 3. Cells were thawed in a 37° C. water bath and resuspended in complete media (see #1 above). • 4. The cells were plated in a 175 cm^2 polystyrene, white top, non-adherent culture flask at a density of 1×10^4 cells/cm^2 and allowed to settle overnight (Day-1, Table G). • 5. The media was changed approximately 24 hours after the initial plating (Day 0, Table G). • 6. After approximately two days of proliferation, the cells were harvested with a cell scraper, collected in a 50 mL conical tube and centrifuged at 1000 rpm to pellet the cells. • 7. The cell pellets were resuspended in 4 mL complete media, counted with a hemocytometer and plated at a density of 0.125×10^4 cells/0.25 ml/well in a 16 well osteologic assay slide (Day 1, Table G). • 8. The cells were allowed to adhere for 24 hours, the media was removed and fresh differentiation media was prepared that contained complete media+RANK L (30 ng/ml; Pepro Tech #315-11)+/−drug (Day 2, Table G). […] Step 8 was repeated on days 5 and 7 (Table G). • 10. On day 9 the plates were harvested by removing the media, rinsing with dH2O and treated with bleach for 7 minutes. • 11. The bleach was disposed of in the drug waste container and the wells and gaskets were removed from the slide. • 12. The plates were rinsed with H2O 5 times, dried and analyzed for matrix degradation as described below
The clonidine concentrations tested were 100 μM, 10 μM, 1 μM, 0.1 μM and the sulindac concentrations tested were 140 μM, 70 μM, 35 μM, 17.5 μM, and 8.75 μM.

[3] = tested on: inflammation induced in minipigs; settings: high dose clonidine (150 μg), injected; days 1, 3 and 4 post-surgery
Description: In a separate experiment, inflammation was induced in minipigs and the minipigs were given clonidine, bupivacaine, or morphine. The surgical site was reviewed for inflammation while the minipigs were anesthesized and on day 4. Scoring of inflammation was reviewed in the area of incision for redness with the following scores: 0—no redness; 1—slightly red limited to area of incision; 2—massive spread redness and swelling with the following scores 0—no swelling; 1—slightly swelling; 3—massive swelling. Redness and swelling were summed up so the minimum score is 0 and maximum score is 4. […] The low dose clonidine given was 75 μg.

[4] = tested on: thermal hyperalgesia, Bennett Model; test: Rat chronic constriction injury model, Hargreaves test of thermal hyperalgesia (sulindac); type: in vivo, Wistar rat; settings: intraperitoneally at 0.4 mg/kg/day
Experimental: as §1, with “5” for “five”, “Sulindac/Polymer” for “Clonidine/Polymer”, “sulindac-eluting” for “clonidine-eluting”, “pain.” for “pain with an inflammatory component.”
(§4) Experimental Design: Four loose chromic gut ligatures, 1 mm apart, were tied around the common sciatic nerve at mid-thigh. Each animal received treatment of test or control article—according to the dosing described in Table 10.
(§5) To date, the present study was conducted for a period of 57 days and employed the following two tests: (1) the Hargreaves test on days 7, 14, 21, 28, 35, 42, 49, and 56; and (2) the von Frey test on days 8, 15, 22, 29, 36, 43, 50, and 57.

[5] = tested on: mechanical allodynia, Bennett Model; test: Rat chronic constriction injury model, von Frey test of mechanical allodynia (sulindac); type: in vivo, Wistar rat; settings: intraperitoneally at 0.4 mg/kg/day
Experimental: as §1, with “5” for “five”, “Sulindac/Polymer” for “Clonidine/Polymer”, “sulindac-eluting” for “clonidine-eluting”, “pain.” for “pain with an inflammatory component.”
as §4, §5

[6] = tested on: neuropathic pain, CCI model; test: 2-month chronic constriction injury (CCI) model of neuropathic pain (fluocinolone), thermal paw withdrawal latency and mechanical threshold; type: in vivo
Experimental: A 2-month chronic constriction injury (CCI) model of neuropathic pain was used to evaluate different formulations of a corticosteroid, fluocinolone, encapsulated in bioerodable polymers compared to fluocinolone given subcutaneously (SC). Different formulations as provided in Table B below were evaluated for reducing pain-associated behaviors: Thermal paw withdrawal latency was evaluated at baseline 7, 14, 21, 28, 35, 42, 49, and 56 days post-operatively, while mechanical threshold was evaluated at 8, 15, 22, 29, 36, 43, 50, and 57 days post-operatively. […] The pain of periodontal disease is due to the inflammation. […] Mechanical allodynia was measured using von Frey monofilaments (Stoelting, Wood Dale, Ill.) with varying stiffness (2.0-15.0 g) on Days 1, 8, 15, 22, 29, 36, 43, 50 and 57 as described previously. […] The 50% paw withdrawal threshold response was determined by a sequential increasing and/or decreasing of the stimulus strength (the “up-down method” of Dixon). […] The 50% paw withdrawal threshold was calculated using the formula: 10 (Xf+kd)/10,000, where Xf is the final von Frey filament used (log units), k is a value that analyzes the response pattern (taken from the table published by Chaplan et al.), and d is the mean difference between stimuli (log units). The mean and standard error of the mean (SEM) were determined for each treatment group.

For Clc1cccc(Cl)c1N=C1NCCN1 [clonidine, 2,6-dichloro-N-2-imidazolidinyldenebenzenamine], the “pain behavioral response, mechanical allodynia, compared to unloaded polymer depots” value [1] was “reduced the behavioral response”, the “pain behavioral response, thermal hyperalgesia, compared to unloaded polymer depots” value [2] was “consistently reduced the behavioral response” and the “pain behavioral response (percentage of baseline), thermal hyperalgesia” value ([2]; unloaded polymer depots 45%) was 58%. For the same molecule, the “osteoclast differentiation and bone resorption compared to RANK only treated control wells” value (murine RAW NO+ cell line; clonidine at 100 μM and 10 μM) was “significantly decreased”, the “inhibitory effects on osteoclast differentiation and resorption” value (murine RAW NO+ cell line) was “significant inhibitory effects” and the lowest inhibitory concentration (murine RAW NO+ cell line) was 10 µM. The “inflammation score (redness + swelling, 0 to 4)” value [3] was “very low”.
For CC1=C(CC(=O)O)c2cc(F)ccc2/C1=C\c1ccc([S+](C)[O-])cc1 (stereo not drawn) [sulindac], the “pain behavioral response, thermal hyperalgesia, compared to unloaded polymer depot (85/15 PLGA Control)” value [4] was “consistently reduced the behavioral response”, the “pain behavioral response, mechanical allodynia, compared to unloaded polymer depots (85/15 PLGA Control)” value [5] was “reduced the behavioral response” and the “inhibitory effects on osteoclast differentiation and resorption” value (murine RAW NO+ cell line) was “significant inhibitory effects”. The lowest inhibitory concentration (murine RAW NO+ cell line) was 140.3 µM.
In the case of CC1(C)O[C@@H]2C[C@H]3[C@@H]4C[C@H](F)C5=CC(=O)C=C[C@]5(C)[C@@]4(F)[C@@H](O)C[C@]3(C)[C@]2(C(=O)CO)O1 [fluocinolone, 6α-,9α-Difluoro-16 α-hydroxyprednisolone 16,17-acetonide], the pain threshold [6] was “reduced pain threshold”.
